# Test results as given in US20160257697A1, “THIOPHENE-SUBSTITUTED TETRACYCLIC COMPOUNDS AND METHODS OFUSE THEREOF FOR THE TREATMENT OF VIRAL DISEASES” (priority 2013, published 2016).
# Like-named read-outs stand apart in the source and are kept apart here.
# Experiments:
# Assay in all cases: microbe, parasite or virus in culture
# Type in all cases: cell-based, Hepatitis C virus (HCV)
# Conditions in all cases: Replicon Assay A
# [1] = tested on: HCV replicon 1A
# Summary of the method: (§1)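 Replicon cells were seeded at 2000 cells/well with test compound in 0.5% DMSO and 5% FBS, then harvested on day 3. Replicon RNA was measured by multiplex TaqMan real-time RT-PCR, using cyclophilin RNA as the endogenous control and quantified against standard curves of HCV replicon total RNA.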
# [2] = tested on: HCV replicon 1AY93H
# Summary of the method: as §1
# [3] = tested on: HCV replicon 2B
# Summary of the method: as §1
# [4] = read-out: 1A Y93H IC50, replicon 1AY93H
# [5] = Hepatitis C virus, HCV replicon 1A
# [6] = Hepatitis C virus, read-out: 1A Y93H IC50, HCV replicon 1A Y93H
# [7] = Hepatitis C virus, read-out: 2B IC50, HCV replicon 2B
# [8] = Hepatitis C virus, read-out: 1A Y93H IC50 (nM), replicon 1AY93H
# [9] = Hepatitis C virus, read-out: 2B IC50 (nM), replicon 2B
SMILES,IC50 ([1]; replicon 1A),"IC50 [2, 4]","IC50 ([3]; read-out: 2B IC50, replicon 2B)","IC50 ([1]; Hepatitis C virus, replicon 1A)","IC50 [2, 8]",also measured
"COC(=O)NC(C(=O)N1CCC[C@H]1c1ncc(-c2ccc3c(c2)cc2n3C(c3ccc(C4CC4)s3)Oc3cc(-c4cnc([C@@H]5CCCN5C(=O)[C@@H](NC(=O)OC)C(C)C)[nH]4)cc(F)c3-2)[nH]1)C1CN(C(=O)C2CC2)C1 (single isomer, unassigned) [Compound 269]",0.0026 nM,0.28 nM,0.25 nM,–,–,–
COC(=O)N[C@H](C(=O)N1C[C@H](F)C[C@H]1c1nc(-c2ccc3c(c2)cc2n3C(c3cc(C)c(C)s3)Oc3cc(-c4cnc([C@@H]5C[C@@H](F)CN5C(=O)[C@@H](NC(=O)OC)C(C)C)[nH]4)ccc3-2)c[nH]1)C(C)C (mixture of isomers) [Compound 711],–,–,–,–,–,"IC50 [1, 5]: 0.027 nM; IC50 [2, 6]: 0.12 nM; IC50 [3, 7]: 0.029 nM"
"COC(=O)NC(C(=O)N1CCC[C@H]1c1ncc(-c2ccc3c(c2)cc2n3C(c3ccc(C(C)C)s3)Oc3cc(-c4cnc([C@@H]5CCCN5C(=O)[C@@H](NC(=O)OC)C(C)C)[nH]4)cc(C)c3-2)[nH]1)C1C[C@@H](C)O[C@@H](C)C1 (single isomer, unassigned) [Compound 365]",–,0.38 nM,0.154 nM,0.0027 nM,–,–
"COC(=O)NC(C(=O)N1CCC[C@H]1c1ncc(-c2ccc3c(c2)cc2n3C(c3cc4c(s3)CCC4)Oc3cc(-c4cnc([C@@H]5CCCN5C(=O)[C@@H](NC(=O)OC)C(C)C)[nH]4)cc(F)c3-2)[nH]1)C1CCOC(C)(C)C1 (single isomer, unassigned) [Compound 405]",–,–,–,0.0023 nM,0.0133 nM,"IC50 [3, 9]: 0.0042 nM"
COC(=O)N[C@H](C(=O)N1CCC[C@H]1c1ncc(-c2cc(F)c3c(c2)OC(c2cccs2)n2c-3cc3cc(-c4cnc([C@@H]5CCCN5C(=O)[C@@H](NC(=O)OC)C(C)C)[nH]4)ccc32)[nH]1)C(C)C (mixture of isomers) [Compound 500],–,–,–,–,–,"IC50 [1, 5]: 0.0219 nM; IC50 [2, 6]: 0.367 nM; IC50 [3, 7]: 2.5 nM"
"COC(=O)NC(C(=O)N1CCC[C@H]1c1ncc(-c2ccc3c(c2)cc2n3C(c3ccc(C4CC4)s3)Oc3cc(-c4cnc([C@@H]5CCCN5C(=O)[C@@H](NC(=O)OC)C(C)C)[nH]4)cc(F)c3-2)[nH]1)C1C2COCC21 (single isomer, unassigned) [Compound 338]",–,0.357 nM,1.52 nM,0.0024 nM,–,–
"COC(=O)NC(C(=O)N1CCC[C@H]1c1ncc(-c2ccc3c(c2)cc2n3C(c3ccc(C4CC4)s3)Oc3cc(-c4cnc([C@@H]5CCCN5C(=O)[C@@H](NC(=O)OC)C(C)C)[nH]4)cc(F)c3-2)[nH]1)C1CC2CCC(C1)O2 (single isomer, unassigned) [Compound 181]",0.0023 nM,–,–,–,0.054 nM,"IC50 [3, 9]: 0.083 nM"
"COC(=O)NC(C(=O)N1CCC[C@H]1c1ncc(-c2cc(F)c3c(c2)OC(c2ccc(C4CCC4)s2)n2c-3cc3cc(-c4cnc([C@@H]5CCCN5C(=O)[C@@H](NC(=O)OC)C5CCOCC5)[nH]4)ccc32)[nH]1)C(C)(C)F (single isomer, unassigned) [Compound 249]",0.0228 nM,1.18 nM,5.04 nM,–,–,–
"CCc1ccc(C2Oc3cc(-c4cnc([C@@H]5CCCN5C(=O)[C@@H](NC(=O)OC)C(C)C)[nH]4)cc(F)c3-c3cc4cc(-c5cnc([C@@H]6C[C@H]7C[C@H]7N6C(=O)C(NC(=O)OC)C6CCOC(C)(C)C6)[nH]5)ccc4n32)s1 (single isomer, unassigned) [Compound 196]",0.0018 nM,0.062 nM,0.55 nM,–,–,–
"COC(=O)N[C@H](C(=O)N1CCC[C@H]1c1ncc(-c2cc(F)c3c(c2)OC(c2cc(C)c(C)s2)n2c-3cc3cc(-c4cnc([C@@H]5C[C@@H](F)CN5C(=O)[C@@H](NC(=O)OC)C(C)C)[nH]4)ccc32)[nH]1)C(C)C (single isomer, unassigned) [Compound 515]",–,–,–,–,–,"IC50 ([1]; HCV replicon 1A): 0.0103 nM; IC50 ([2]; read-out: 1A Y93H IC50, HCV replicon 1A Y93H): 6.54 nM; IC50 ([3]; read-out: 2B IC50, HCV replicon 2B): 18.7 nM"
"COC(=O)N[C@H](C(=O)N1CCC[C@H]1c1ncc(-c2cc(F)c3c(c2)OC(c2sc(C4CC4)cc2C)n2c-3cc3cc(-c4cnc([C@@H]5CCCN5C(=O)[C@@H](NC(=O)OC)C(C)C)[nH]4)ccc32)[nH]1)C(C)C (single isomer, unassigned) [Compound 328]",–,2.8 nM,1.73 nM,0.001 nM,–,–
COC(=O)N[C@H](C(=O)N1CCC[C@H]1c1ncc(-c2cc(F)c3c(c2)OC(c2cc(C)c(C(C)C)s2)n2c-3cc3cc(-c4cnc([C@@H]5CCCN5C(=O)[C@@H](NC(=O)OC)C(C)C)[nH]4)ccc32)[nH]1)C(C)C (mixture of isomers) [Compound 64],–,–,–,0.004 nM,0.15 nM,"IC50 [3, 9]: 4.01 nM"
"COC(=O)N[C@H](C(=O)N1CCC[C@H]1c1ncc(-c2cc(F)c3c(c2)OC(c2ccc(C(C)C(F)(F)F)s2)n2c-3cc3cc(-c4cnc([C@@H]5CCCN5C(=O)[C@@H](NC(=O)OC)C(C)C)[nH]4)ccc32)[nH]1)C(C)C (single isomer, unassigned) [Compound 132]",–,–,6 nM,0.0032 nM,4.93 nM,–
